From patent US9611268B2, “Modulators of toll-like receptor 7” (Gilead Sciences, Inc., priority 2007, dated 2017)

Test system: human Peripheral Blood Mononuclear Cell (PMBC)
Test: PBMC Assay, cytokine stimulation (IFNα)
Format: cell-based
Conditions: concentration at which the compound stimulated maximum IFN α production, 24 hours, read-out: IFN ECmax values
Procedure: Assays were conducted to determine cytokine stimulation at 24 hours from human Peripheral Blood Mononuclear Cell (PMBC) using the compounds of the present invention. The assays were run in duplicate, with 8-point, half-log dilution curves. The compounds of the present invention were diluted from […] DMSO solution. Cell supernatants are assayed directly for IFNα and 1:10 dilution for TNFα. The assays were performed in a similar fashion as described in Bioorg. Med. Chem. Lett. 16, 4559, (2006). Specifically, cryo-preserved PBMCs were thawed and seeded 96 well plates with 750,000 cells/well in 190 μL/well cell media. The PBMCs were then incubated for 1 hour at 37° C. at 5% CO2. Then, the compounds of the present invention were added in 10 μL cell media at 8 point, half-log dilution titration. The plates were incubated at 37° C. and 5% CO2 for 24 hours and then spinned at 1200 rpm for 10 min, which was followed by collecting supernatant and storing the same at −80° C. Cytokine secretion was assayed with Luminex and Upstate multi-plex kits, using a Luminex analysis instrument. IFN ECmax value for a compound was the concentration at which the compound stimulated maximum IFN α production as determined using the assay method above.

SMILES	EC (max) [µM]
COCCOc1nc(N)c2nc(O)n(Cc3cccc(CN4CCCC4)c3)c2n1 [Example A, 6-Amino-2-(2-methoxy-ethoxy)-9-(3-pyrrolidin-1-ylmethyl-benzyl)-9H-purin-8-ol]	< 0.005
COCCOc1nc(N)c2nc(O)n(Cc3cc(CN4CCCC4)cc(C(F)(F)F)c3)c2n1 [Example AQ]	< 0.005
COCCOc1nc(N)c2nc(O)n(Cc3cc(CN4CCCCC4)cc(C(F)(F)F)c3)c2n1 [Example AS]	< 0.005
Nc1nc(OCCC2CC2)nc2c1nc(O)n2Cc1cccc(CN2CCCC2)c1 [Example AU]	< 0.005
Nc1nc(OCC2CCC2)nc2c1nc(O)n2Cc1cccc(CN2CCCC2)c1 [Example AV]	< 0.005
Nc1nc(OCC2CC2)nc2c1nc(O)n2Cc1cccc(CN2CCCC2)c1 [Example AW]	< 0.005
COCCOc1nc(N)c2nc(O)n(Cc3cccc(CNCC4CCCCC4)c3)c2n1 [Example AZ]	< 0.005
CCCCOc1nc(N)c2nc(O)n(Cc3cccc(CN4CCC4)c3)c2n1 [Example BE]	< 0.005
Nc1nc(OCCC(F)(F)F)nc2c1nc(O)n2Cc1cccc(CN2CCCC2)c1 [Example BH]	< 0.005
Nc1nc(OC2CCCC2)nc2c1nc(O)n2Cc1cccc(CN2CCCC2)c1 [Example BM]	< 0.005
COCCOc1nc(N)c2nc(O)n(Cc3cccc(CN4CCN(C)CC4)c3)c2n1 [Example C, 6-Amino-2-(2-methoxy-ethoxy)-9-[3-(4-methyl-piperazin-1-ylmethyl)-benzyl]-9H-purin-8-ol]	< 0.005
COCCOc1nc(N)c2nc(O)n(Cc3cccc(CNCC4CC4)c3)c2n1 [Example D, 6-Amino-9-{3-[(cyclopropylmethyl-amino)-methyl]-benzyl}-2-(2-methoxy-ethoxy)-9H-purin-8-ol]	< 0.005
COCCOc1nc(N)c2nc(O)n(Cc3cccc(CN4CC(C)CC(C)C4)c3)c2n1 (stereo not shown) [Example F, 6-Amino-9-[3-(3,5-dimethyl-piperidin-1-ylmethyl)-benzyl]-2-(2-methoxy-ethoxy)-9H-purin-8-ol]	< 0.005
COCCOc1nc(N)c2nc(O)n(Cc3cccc(CN4CCCCC4)c3)c2n1 [Example J, 6-Amino-2-(2-methoxy-ethoxy)-9-(3-piperidin-1-ylmethyl-benzyl)-9H-purin-8-ol]	< 0.005
COCCOc1nc(N)c2nc(O)n(Cc3cccc(CN4CCC4)c3)c2n1 [Example N, 9-(3-(azetidin-1-ylmethyl)benzyl)-6-amino-2-(2-methoxyethoxy)-9H-purin-8-ol]	< 0.005
COCCOc1nc(N)c2nc(OC(=O)OC(C)C)n(Cc3cccc(CN4CCCC4)c3)c2n1 [Example R, 9-(3-(pyrrolidin-1-ylmethyl)benzyl)-6-amino-2-(2-methoxyethoxy)-9H-purin-8-yl isopropyl carbonate]	< 0.005
